These results are taken from patent publication US20230172204A1 (BASF SE, priority 2020, published 2023).

Experiment [1] has as its system Phakopsora pachyrhizi (F129L). The experiment is described as follows: Protective control of soybean rust on soybeans (PHAKPA P2). It counts as in vivo. The note with it: for % PHAKPA (F129L) Disease level P2 at 4 ppm: protective P2, 4 ppm; for % PHAKPA (F129L) Disease level P2 at 4 ppm / % PHAKPA (F129L) Disease level P2 at 16 ppm: soybean rust F129L; for % PHAKPA (F129L) Disease level P2 at 16 ppm: protective P2, 16 ppm; for PHAKPA (F129L) Disease level (%) P2 at 16 ppm / PHAKPA (F129L) Disease level (%) P2 at 4 ppm: P2 protective, % diseased leaf area.

For experiment [2], the system named is Phakopsora pachyrhizi (F129L). The experiment is described as follows: Protective control of soybean rust on soybeans (PHAKPA P6). It counts as in vivo. The conditions noted are these: for % PHAKPA (F129L) Disease level P6 at 4 ppm: protective P6, 4 ppm; for % PHAKPA (F129L) Disease level P6 at 4 ppm / % PHAKPA (F129L) Disease level P6 at 16 ppm: soybean rust F129L; for % PHAKPA (F129L) Disease level P6 at 16 ppm: protective P6, 16 ppm; for PHAKPA (F129L) Disease level (%) P6 at 16 ppm / PHAKPA (F129L) Disease level (%) P6 at 4 ppm: P6 protective, % diseased leaf area.

Take `CNC(=O)/C(=N/OC)c1cccc(C)c1CO/N=C(\C)c1ccccc1C` [compound 127]: in experiment [1], the “% PHAKPA (F129L) Disease level P2 at 4 ppm” value amounted to 90% and the “% PHAKPA (F129L) Disease level P2 at 16 ppm” value is reported as 44%. For the same compound, in experiment [2], the “% PHAKPA (F129L) Disease level P6 at 4 ppm” value worked out at 93% and the “% PHAKPA (F129L) Disease level P6 at 16 ppm” value amounted to 62%.
`CO/N=C(/C(=O)OC)c1cccc(C)c1CO/N=C(\C)c1cc(C)cc(Cl)c1` [compound 101]: in experiment [1], the “% PHAKPA (F129L) Disease level P2 at 4 ppm” value was 70% and the “% PHAKPA (F129L) Disease level P2 at 16 ppm” value was determined as 37%. Moreover, in experiment [2], the “% PHAKPA (F129L) Disease level P6 at 4 ppm” value came to 60% and the “% PHAKPA (F129L) Disease level P6 at 16 ppm” value came out at 17%.
For `CNC(=O)/C(=N/OC)c1cccc(C)c1CO/N=C(\C)c1ccc(C#N)cc1C(F)(F)F` [compound 424], in that order: 100%, 27%, 97% and 50%.
For `C#Cc1cc(F)c(F)c(/C(C)=N/OCc2c(C)cccc2/C(=N\OC)C(=O)NC)c1` [compound 243], in experiment [1], the “% PHAKPA (F129L) Disease level P2 at 4 ppm” value was 4% and the “% PHAKPA (F129L) Disease level P2 at 16 ppm” value is 0%. Besides, in experiment [2], the “% PHAKPA (F129L) Disease level P6 at 4 ppm” value was 37% and the “% PHAKPA (F129L) Disease level P6 at 16 ppm” value turned out to be 1%.
Taken in the same sequence, the figures for `CNC(=O)/C(=N/OC)c1cccc(C)c1CO/N=C(\C)c1cc(Br)ccc1F` [compound 140] were 8%, 0%, 13% and 4%.
Taken in the same sequence, the figures for `CNC(=O)/C(=N/OC)c1cccc(C)c1CO/N=C(\C)c1cccc(-c2cc(C)on2)c1` [compound 42] were 60%, 23%, 60% and 20%.
For `CO/N=C(/C(=O)OC)c1ccccc1CO/N=C(\C)c1ccc(C#N)cc1` [reference compound], the “PHAKPA (F129L) Disease level (%) P2 at 16 ppm” value (from here on “PHAKPA … (%) P2 at 16 ppm”) in experiment [1] is 87%. Also, in experiment [2], the “PHAKPA (F129L) Disease level (%) P6 at 16 ppm” value (from here on “PHAKPA … (%) P6 at 16 ppm”) is 53%.
For the compound `CO/N=C(/C(=O)OC)c1cccc(C)c1CO/N=C(\C)c1ccc(Cl)c(C(F)(F)F)c1` [compound 59], in experiment [1], the “% PHAKPA (F129L) Disease level P2 at 4 ppm” value was found to be 67% and the “% PHAKPA (F129L) Disease level P2 at 16 ppm” value stood at 20%. Also, in experiment [2], the “% PHAKPA (F129L) Disease level P6 at 4 ppm” value is recorded as 63% and the “% PHAKPA (F129L) Disease level P6 at 16 ppm” value amounted to 11%.
As to `CNC(=O)/C(=N/OC)c1cccc(C)c1CO/N=C(/c1ccc(Cl)cc1)C(F)F` [compound 22], in experiment [1], the “% PHAKPA (F129L) Disease level P2 at 4 ppm” value was 100% and the “% PHAKPA (F129L) Disease level P2 at 16 ppm” value is 90%. In experiment [2], the “% PHAKPA (F129L) Disease level P6 at 4 ppm” value worked out at 100% and the “% PHAKPA (F129L) Disease level P6 at 16 ppm” value is listed as 93%.
`CO/N=C(/C(=O)OC)c1cccc(C)c1CO/N=C(\C)c1cccc(F)c1C(F)(F)F` [compound 330]: in experiment [1], the “% PHAKPA (F129L) Disease level P2 at 4 ppm” value turned out to be 83% and the “% PHAKPA (F129L) Disease level P2 at 16 ppm” value came to 24%. In experiment [2], the “% PHAKPA (F129L) Disease level P6 at 4 ppm” value was 93% and the “% PHAKPA (F129L) Disease level P6 at 16 ppm” value is reported as 17%.
For `CNC(=O)/C(=N/OC)c1cccc(C)c1CO/N=C(\C)c1ccc(C)cc1` [Ex. 6, (2E)-2-Methoxyimino-N-methyl-2-[3-methyl-2-[[(E)-1-(p-tolyl)ethylideneamino]oxymethyl]phenyl]acetamide], in experiment [1], the “PHAKPA (F129L) Disease level (%) P2 at 4 ppm” value (from here on “PHAKPA … (%) P2 at 4 ppm”) came out at 0%, the “% PHAKPA (F129L) Disease level P2 at 4 ppm” value was found to be 1% and the “% PHAKPA (F129L) Disease level P2 at 16 ppm” value is reported as 0%. Moreover, in experiment [2], the “PHAKPA (F129L) Disease level (%) P6 at 4 ppm” value (“PHAKPA … (%) P6 at 4 ppm” for short) turned out to be 23%, the “% PHAKPA (F129L) Disease level P6 at 4 ppm” value came out at 19% and the “% PHAKPA (F129L) Disease level P6 at 16 ppm” value was found to be 1%.
For `CCC/C(=N\OCc1c(C)cccc1/C(=N\OC)C(=O)OC)c1ccccc1` [compound 387], in experiment [1], the “% PHAKPA (F129L) Disease level P2 at 4 ppm” value amounted to 60% and the “% PHAKPA (F129L) Disease level P2 at 16 ppm” value turned out to be 30%. Also, in experiment [2], the “% PHAKPA (F129L) Disease level P6 at 4 ppm” value was found to be 80% and the “% PHAKPA (F129L) Disease level P6 at 16 ppm” value was 47%.
`CO/N=C(\C)c1ccc(/C(C)=N/OCc2ccccc2/C(=N\OC)C(=O)OC)cc1` [reference compound]: the “PHAKPA … (%) P2 at 16 ppm” value in experiment [1] worked out at 57%. Further, the “PHAKPA … (%) P6 at 16 ppm” value in experiment [2] is reported as 60%.
Take `CO/N=C(/C(=O)OC)c1cccc(C)c1CO/N=C(\C)c1cccc(-c2cc(C)on2)c1` [compound 43]: in experiment [1], the “% PHAKPA (F129L) Disease level P2 at 4 ppm” value is 100% and the “% PHAKPA (F129L) Disease level P2 at 16 ppm” value came out at 100%. In addition, in experiment [2], the “% PHAKPA (F129L) Disease level P6 at 4 ppm” value is reported as 97% and the “% PHAKPA (F129L) Disease level P6 at 16 ppm” value is given as 87%.
Consider `CO/C=C(/C(=O)OC)c1cccc(C)c1CO/N=C(\C)c1c(Cl)ccc(Cl)c1OC(F)(F)F` [compound 444], for which, in experiment [1], the “% PHAKPA (F129L) Disease level P2 at 4 ppm” value is 100% and the “% PHAKPA (F129L) Disease level P2 at 16 ppm” value was found to be 47%. In experiment [2], the “% PHAKPA (F129L) Disease level P6 at 4 ppm” value was 83% and the “% PHAKPA (F129L) Disease level P6 at 16 ppm” value is listed as 53%.
For `CO/N=C(/C(=O)OC)c1cccc(C(F)F)c1CO/N=C(\C)c1cccc(C(F)(F)F)c1` [Ex. 24], in experiment [1], the “% PHAKPA (F129L) Disease level P2 at 4 ppm” value was 36% and the “% PHAKPA (F129L) Disease level P2 at 16 ppm” value was 60%. In experiment [2], the “% PHAKPA (F129L) Disease level P6 at 4 ppm” value was 4% and the “% PHAKPA (F129L) Disease level P6 at 16 ppm” value turned out to be 28%.
For `CNC(=O)/C(=N/OC)c1cccc(C)c1CO/N=C(\C)c1ccc(Cl)c(Cl)c1C(F)(F)F` [compound 431], in that order: 32%, 7%, 40% and 12%.
For the compound `CO/N=C(/C(=O)OC)c1cccc(C)c1CO/N=C(\C)c1c(F)cccc1C(F)(F)F` [compound 365], in experiment [1], the “% PHAKPA (F129L) Disease level P2 at 4 ppm” value was determined as 77% and the “% PHAKPA (F129L) Disease level P2 at 16 ppm” value is 15%. Further, in experiment [2], the “% PHAKPA (F129L) Disease level P6 at 4 ppm” value is reported as 97% and the “% PHAKPA (F129L) Disease level P6 at 16 ppm” value was 43%.
For `CNC(=O)/C(=N/OC)c1cccc(C)c1CO/N=C(\C)c1cccc(OC(F)F)c1` [compound 81], in that order: 6%, 0%, 2% and 0%.
For `CO/N=C(/C(=O)OC)c1cccc(C)c1CO/N=C(\C)c1ccc(Cl)cc1C(F)(F)F` [compound 304], in that order: 53%, 28%, 100% and 37%.
Regarding `CNC(=O)/C(=N/OC)c1ccccc1CO/N=C(\C)c1cccc(Cl)c1` [reference compound], the “PHAKPA … (%) P2 at 4 ppm” value in experiment [1] turned out to be 43%. For the same compound, the “PHAKPA … (%) P6 at 4 ppm” value in experiment [2] came out at 80%.
Regarding `CO/N=C(/C(=O)OC)c1cccc(Br)c1CO/N=C(\C)c1ccccc1` [compound 395], in experiment [1], the “% PHAKPA (F129L) Disease level P2 at 4 ppm” value is listed as 43% and the “% PHAKPA (F129L) Disease level P2 at 16 ppm” value was found to be 4%. Also, in experiment [2], the “% PHAKPA (F129L) Disease level P6 at 4 ppm” value came to 67% and the “% PHAKPA (F129L) Disease level P6 at 16 ppm” value turned out to be 18%.
Turning to `CNC(=O)/C(=N/OC)c1ccccc1CO/N=C(\C)c1ccc(C)cc1` [reference compound], the “PHAKPA … (%) P2 at 4 ppm” value in experiment [1] is 100%. Besides, in experiment [2], the “PHAKPA … (%) P6 at 4 ppm” value was 100%.
As to `CO/N=C(/C(=O)OC)c1cccc(C)c1CO/N=C(\C)c1ccccc1OC` [compound 123], in experiment [1], the “% PHAKPA (F129L) Disease level P2 at 4 ppm” value is 100% and the “% PHAKPA (F129L) Disease level P2 at 16 ppm” value is recorded as 82%. Further, in experiment [2], the “% PHAKPA (F129L) Disease level P6 at 4 ppm” value is given as 90% and the “% PHAKPA (F129L) Disease level P6 at 16 ppm” value is on record as 78%.
Regarding `CO/N=C(/C(=O)OC)c1cccc(C)c1CO/N=C(\C)c1ccccc1` [Ex. 30], in experiment [1], the “PHAKPA … (%) P2 at 16 ppm” value was 2%, the “% PHAKPA (F129L) Disease level P2 at 4 ppm” value turned out to be 53% and the “% PHAKPA (F129L) Disease level P2 at 16 ppm” value is recorded as 1%. For the same compound, in experiment [2], the “PHAKPA … (%) P6 at 16 ppm” value is 1%, the “% PHAKPA (F129L) Disease level P6 at 4 ppm” value was 77% and the “% PHAKPA (F129L) Disease level P6 at 16 ppm” value was determined as 2%.
In the case of `CO/N=C(/c1cccc(/C(C)=N/OCc2c(C)cccc2/C(=N\OC)C(=O)OC)c1)C(F)(F)F` [compound 70], in experiment [1], the “% PHAKPA (F129L) Disease level P2 at 4 ppm” value is reported as 30% and the “% PHAKPA (F129L) Disease level P2 at 16 ppm” value worked out at 0%. In experiment [2], the “% PHAKPA (F129L) Disease level P6 at 4 ppm” value was determined as 10% and the “% PHAKPA (F129L) Disease level P6 at 16 ppm” value stood at 1%.
Regarding `CO/N=C(/C(=O)OC)c1cccc(C)c1CO/N=C(\C)c1cc(C)ccc1C` [compound 203], in experiment [1], the “% PHAKPA (F129L) Disease level P2 at 4 ppm” value is 87% and the “% PHAKPA (F129L) Disease level P2 at 16 ppm” value turned out to be 32%. Also, in experiment [2], the “% PHAKPA (F129L) Disease level P6 at 4 ppm” value was 93% and the “% PHAKPA (F129L) Disease level P6 at 16 ppm” value is given as 32%.
`CO/N=C(/C(=O)OC)c1cccc(C)c1CO/N=C(\C)c1cccc(CC2COC2)c1` [compound 160]: in experiment [1], the “% PHAKPA (F129L) Disease level P2 at 4 ppm” value was 100% and the “% PHAKPA (F129L) Disease level P2 at 16 ppm” value is 97%. In experiment [2], the “% PHAKPA (F129L) Disease level P6 at 4 ppm” value came to 87% and the “% PHAKPA (F129L) Disease level P6 at 16 ppm” value came out at 90%.
Taken in the same sequence, the figures for `CCc1cccc(/C(=N\OC)C(=O)OC)c1CO/N=C(\C)c1cccc(C(F)(F)F)c1` [compound 61] were 70%, 15%, 90% and 18%.
Taken in the same sequence, the figures for `CO/N=C(/C(=O)OC)c1cccc(C)c1CO/N=C(\C)c1c(Cl)cccc1Cl` [compound 171] were 100%, 100%, 80% and 50%.
